Source: US7951752B2, “O-cyclopropyl-carboxanilides and their use as fungicides” (Syngenta Crop Protection, Inc., priority 2002, dated 2011)

CC(C)CC1CC1c1ccccc1NC(=O)c1cn(C)cc1C(F)(F)F (stereo not shown) [Compound 3.17, 1-methyl-4-trifluoromethyl-1H-pyrrole-3-carboxylic acid [2-(2-isobutyl-cyclopropyl)phenyl]amide]
melting point: 61 to 65 °C
